From BindingDB's records for doi:10.7270/Q25D8Q92 (Burnham Center For Chemical Genomics, 2011) come the findings set out here.

One may read the IC50 as the concentration needed to halve the response being measured. Lower therefore signals higher potency.

Some results are limits rather than exact numbers.

The assay deals with T1, Bcl-2-related protein A1 (Mus musculus, UniProt Q07440).
T1 sequence (Q07440 whole entry): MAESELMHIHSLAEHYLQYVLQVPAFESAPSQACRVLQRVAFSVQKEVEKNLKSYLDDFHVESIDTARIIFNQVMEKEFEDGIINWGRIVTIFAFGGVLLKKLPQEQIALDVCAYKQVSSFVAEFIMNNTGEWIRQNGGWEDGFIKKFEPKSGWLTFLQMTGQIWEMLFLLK
As to the kind of experiment: Bfl-1 inhibitors in counterscreen, dose response, biochemical (AID 504689). In general terms: The purpose of a counterscreen is to sort out artefacts and off-target activity.
The molecule `O=C1N=c2ccccc2=C1NNC(=S)NCC1CCCO1` (configuration not stated) gave a concentration for half-maximal inhibition (IC50) of over 20 µM. With `Cc1cccc(NC(=S)NNC2=c3ccccc3=NC2=O)c1` the figure was over 20 µM. Regarding `COc1ccc(CN=Nc2cc(C)nc3ccc(OC)cc23)c(OC)c1`, the IC50 came out at 11.4 µM. With `Cc1cc(C)c2c(c1)=C(NNC(=S)NCC1CCCO1)C(=O)N=2` (configuration not stated) the figure was over 20 µM.

The molecule `O=C1Nc2ccc([N+](=O)[O-])cc2C1=NNC(=S)NCC1CCCO1` (configuration not stated) displayed an IC50 of over 20 µM.

In turn, `NC(=S)NN=C1C(=O)N(CCCl)c2ccccc21` gave an IC50 of over 20 µM.

In turn, `COC(=O)c1ccc(CN2C(=O)C(=NNC(N)=S)c3ccccc32)o1` returned an IC50 of over 20 µM. Molecule `CCOC(=O)C1C(COC(=O)c2ncc(Cl)c(Cl)c2Cl)=NC(=O)NC1C` (configuration not stated) had an IC50 of over 20 µM. Then `COCCNC(=S)NN=C1C(=O)Nc2ccc([N+](=O)[O-])cc21` [1-(2-methoxyethyl)-3-[(5-nitro-2-oxoindol-3-yl)amino]thiourea], with over 20 µM. Then `O=C1Nc2ccccc2/C1=N/NC(=S)Nc1ccc(O)cc1` [1-(4-hydroxyphenyl)-3-[(2-oxidanylideneindol-3-yl)amino]thiourea], with over 20 µM; and `CCCCNC(=S)N/N=C1\C(=O)Nc2ccccc21` [1-butyl-3-[(2-oxidanylideneindol-3-yl)amino]thiourea], with over 20 µM; and `CCNC(=S)NNC1=c2cc(C(C)C)ccc2=NC1=O` [1-ethyl-3-[(2-oxo-5-propan-2-yl-3-indolyl)amino]thiourea], with over 20 µM. Then `CCN(CC)CCOC(=O)c1ccc(N=CC(C#N)c2nc(-c3ccc4c(c3)OCO4)cs2)cc1` (configuration not stated) [2-(diethylamino)ethyl 4-[[(Z)-2-[4-(1,3-benzodioxol-5-yl)-1,3-thiazol-2-yl]-2-cyano-ethenyl]amino]benzoate], with 1.72 µM; and `CCN(CC)CCOC(=O)c1ccc(N=CC(C#N)c2nc(-c3cc4ccccc4oc3=O)cs2)cc1` (configuration not stated) [2-(diethylamino)ethyl 4-[[(Z)-2-cyano-2-[4-(2-oxochromen-3-yl)-1,3-thiazol-2-yl]ethenyl]amino]benzoate], with 0.55 µM; and `CCN(CC)CCOC(=O)c1ccc(N=CC(C#N)c2nc(-c3ccc(OC)cc3)cs2)cc1` (configuration not stated) [4-[[(Z)-2-cyano-2-[4-(4-methoxyphenyl)-2-thiazolyl]ethenyl]amino]benzoic acid 2-(diethylamino)ethyl ester], with 2.99 µM. With `CC(=O)N1N=C(C2C(=O)N(C)C(=O)N(C)C2=O)CC1c1ccccc1` (configuration not stated) [5-(1-acetyl-5-phenylpyrazolidin-3-ylidene)-1,3-dimethyl-1,3-diazinane-2,4,6-trione], the IC50 was over 20 µM. With `N=C(N)C1=CC(=O)/C(=C/C=c2ccc(=C(N)N)cc2)C=C1` [(4E)-4-[2-[4-[bis(azanyl)methylidene]cyclohexa-2,5-dien-1-ylidene]ethylidene]-3-oxidanylidene-cyclohexa-1,5-diene-1-carboximidamide;2-oxidanylethanesulfonic acid] the figure was over 20 µM; with `C#CCOCCOCCOCCNc1nc(N2CCN(C(=O)CCCCCCCCCCNC(=O)[C@H](CCCCN)n3cc(CCCC(=O)O)nn3)CC2)nc(N2CCN(C(=O)CCCCCCCCCCNC(=O)[C@H](CCCN=C(N)N)n3cc(C[C@@H](C)CC)nn3)CC2)n1` [EK-IR], 13.9 µM; with `C#CCOCCOCCOCCNc1nc(N2CCN(C(=O)CCCCCCCCCCNC(=O)[C@H]([C@@H](C)CC)n3cc(CCCCN=C(N)N)nn3)CC2)nc(N2CCN(C(=O)CCCCCCCCCCNC(=O)[C@@H]([C@H](C)O)n3cc(C)nn3)CC2)n1` [GT-RI], over 20 µM. As to `C#CCOCCOCCOCCNc1nc(N2CCN(C(=O)CCCCCCCCCCNC(=O)Cn3cc(CCCCCN)nn3)CC2)nc(N2CCN(C(=O)CCCCCCCCCCNC(=O)[C@H]([C@@H](C)CC)n3cc(CCCCN=C(N)N)nn3)CC2)n1` [KG-RI], the IC50 was 9.73 µM.

Take `C#CCOCCOCCOCCNc1nc(N2CCN(C(=O)CCCCCCCCCCNC(=O)Cn3cc(CCCCCN)nn3)CC2)nc(N2CCN(C(=O)CCCCCCCCCCNC(=O)Cn3cc(C[C@@H](C)O)nn3)CC2)n1` [KG-TG]: the IC50 is over 20 µM. With `C#CCOCCOCCOCCNc1nc(N2CCN(C(=O)CCCCCCCCCCNC(=O)[C@H]([C@@H](C)CC)n3cc(CCCCCN)nn3)CC2)nc(N2CCN(C(=O)CCCCCCCCCCNC(=O)[C@H](CCCCN)n3cc(CCCC(=O)O)nn3)CC2)n1` [KI-EK] the figure was over 20 µM; with `C#CCOCCOCCOCCNc1nc(N2CCN(C(=O)CCCCCCCCCCNC(=O)[C@@H](CCC(=O)O)n3cc(CCCCCN)nn3)CC2)nc(N2CCN(C(=O)CCCCCCCCCCNC(=O)[C@H]([C@@H](C)CC)n3cc(CCCCCN)nn3)CC2)n1` [KI-KE], over 20 µM. As to `C#CCOCCOCCOCCNc1nc(N2CCN(C(=O)[C@H](Cc3cc4ccccc4[nH]3)n3cc([C@@H](N)CC(C)C)nn3)CC2)nc(N2CCN(C(=O)[C@H](Cc3cc4ccccc4[nH]3)n3cc([C@@H](N)CC(C)C)nn3)CC2)n1` [LW-LW], the IC50 came out at 19.7 µM. `CCOC(=O)c1c(C)c2c(n1C)CCCC2N=O` (configuration not stated) [MLS000026784] registered an IC50 of over 20 µM. As to `C#CCOCCOCCOCCNc1nc(N2CCN(C(=O)[C@H](CCCCN)n3cc([C@@H](N)C(C)CC)nn3)CC2)nc(N2CCN(C(=O)[C@H](Cc3cc4ccccc4[nH]3)n3cc([C@@H](N)C(C)CC)nn3)CC2)n1` (some centres not stated) [MLS000562580], the IC50 was over 20 µM. Then `C#CCOCCOCCOCCNc1nc(N2CCN(C(=O)[C@H](Cc3cc4ccccc4[nH]3)n3cc([C@@H](N)C(C)CC)nn3)CC2)nc(N2CCN(C(=O)[C@H](CCCCN)n3cc([C@@H](N)CC(C)C)nn3)CC2)n1` (some centres not stated) [MLS000562581], with over 20 µM; and `COCCNC(=S)NNC1=c2cc(C)cc(C)c2=NC1=O` [MLS000774564], with over 20 µM. In the case of `COc1cc2c3c(c1)/C(=N/NC(N)=S)C(=O)N3C(C)(C)C=C2C` [MLS000807018], the IC50 is over 20 µM. As for `CCOC(=O)C1C(COC(=O)c2cc(OC)c(OC)c(OC)c2)=NC(=O)NC1C` (configuration not stated) [MLS001161811], the IC50 is over 20 µM.

`Oc1c(Cc2cnc[nH]2)[nH]c(=S)n1-c1ccccc1` [MLS001163810] came in with an IC50 of over 20 µM.

Molecule `C#CCOCCOCCOCCNc1nc(N2CCN(C(=O)CCCCCCCCCCNC(=O)Cn3cc(C[C@@H](C)O)nn3)CC2)nc(N2CCN(C(=O)CCCCCCCCCCNC(=O)[C@H](CCCN=C(N)N)n3cc(C[C@@H](C)CC)nn3)CC2)n1` [MLS002153601] had an IC50 of 10.1 µM. Then `C#CCOCCOCCOCCNc1nc(N2CCN(C(=O)CCCCCCCCCCNC(=O)[C@H](CCCCN)n3cc(CCO)nn3)CC2)nc(N2CCN(C(=O)CCCCCCCCCCNC(=O)[C@H](CCCCN)n3cc(CCCC(=O)O)nn3)CC2)n1` [MLS002153608], with over 20 µM; and `C#CCOCCOCCOCCNc1nc(N2CCN(C(=O)CCCCCCCCCCNC(=O)[C@H](CCCCN)n3cc(C)nn3)CC2)nc(N2CCN(C(=O)CCCCCCCCCCNC(=O)[C@H](CCCN=C(N)N)n3cc(C[C@@H](C)CC)nn3)CC2)n1` [MLS002153614], with 6.58 µM; and `C#CCOCCOCCOCCNc1nc(N2CCN(C(=O)CCCCCCCCCCNC(=O)[C@H](CCCCN)n3cc(CCO)nn3)CC2)nc(N2CCN(C(=O)CCCCCCCCCCNC(=O)[C@H](CCCCN)n3cc(CCO)nn3)CC2)n1` [MLS002153615], with over 20 µM. In turn, `C#CCOCCOCCOCCNc1nc(N2CCN(C(=O)CCCCCCCCCCNC(=O)[C@H](CCCCN)n3cc(C)nn3)CC2)nc(N2CCN(C(=O)CCCCCCCCCCNC(=O)[C@@H]([C@H](C)CC)n3cc(CCCCCN)nn3)CC2)n1` [MLS002153655] registered an IC50 of 8.02 µM.

In turn, `C#CCOCCOCCOCCNc1nc(N2CCN(C(=O)CCCCCCCCCCNC(=O)Cn3cc(CCCCCN)nn3)CC2)nc(N2CCN(C(=O)CCCCCCCCCCNC(=O)[C@H](CO)n3cc(CCCSC)nn3)CC2)n1` [MLS002153667] showed an IC50 of 11.8 µM. The IC50 values of the last two molecules are within 1.5-fold of each other. Then `C#CCOCCOCCOCCNc1nc(N2CCN(C(=O)CCCCCCCCCCNC(=O)[C@H](CCCCN)n3cc(CCO)nn3)CC2)nc(N2CCN(C(=O)CCCCCCCCCCNC(=O)[C@@H]([C@H](C)O)n3cc(C)nn3)CC2)n1` [MLS002153685], with over 20 µM; and `C#CCOCCOCCOCCNc1nc(N2CCN(C(=O)CCCCCCCCCCNC(=O)Cn3cc(CCCCCN)nn3)CC2)nc(N2CCN(C(=O)CCCCCCCCCCNC(=O)[C@H]([C@@H](C)CC)n3cc(CCCCCN)nn3)CC2)n1` [MLS002153714], with over 20 µM. Molecule `C#CCOCCOCCOCCNc1nc(N2CCN(C(=O)CCCCCCCCCCNC(=O)[C@H]([C@@H](C)CC)n3cc(CCCCCN)nn3)CC2)nc(N2CCN(C(=O)CCCCCCCCCCNC(=O)[C@H]([C@@H](C)CC)n3cc(CCCCN=C(N)N)nn3)CC2)n1` [MLS002153718] gave an IC50 of 6.1 µM.

`C#CCOCCOCCOCCNc1nc(N2CCN(C(=O)CCCCCCCCCCNC(=O)[C@@H](CCSC)n3cc(CCO)nn3)CC2)nc(N2CCN(C(=O)CCCCCCCCCCNC(=O)[C@H](CCC(=O)O)n3cc(CCCCCN)nn3)CC2)n1` [MLS002153730] registered an IC50 of over 20 µM. With `C#CCOCCOCCOCCNc1nc(N2CCN(C(=O)CCCCCCCCCCNC(=O)[C@@H](CCSC)n3cc(CCO)nn3)CC2)nc(N2CCN(C(=O)CCCCCCCCCCNC(=O)[C@H](CO)n3cc(CCCCCN)nn3)CC2)n1` [MLS002153734] the figure was over 20 µM.

In turn, `C#CCOCCOCCOCCNc1nc(N2CCN(C(=O)[C@H](CCCN=C(N)N)n3cc(C(N)[C@H](C)CC)nn3)CC2)nc(N2CCN(C(=O)[C@H](CCCN=C(N)N)n3cc(C(N)[C@@H](C)CC)nn3)CC2)n1` (some centres not stated) [MLS002473475] came in with an IC50 of over 20 µM. The molecule `COc1ccc2nc(C)cc(N=NCc3ccc(F)cc3)c2c1` [N-[(4-fluorophenyl)methylideneamino]-6-methoxy-2-methyl-4-quinolinamine] displayed an IC50 of 17 µM. In turn, `C#CCOCCOCCOCCNc1nc(N2CCN(C(=O)CCCCCCCCCCNC(=O)[C@H]([C@@H](C)CC)n3cc(CCCCN=C(N)N)nn3)CC2)nc(N2CCN(C(=O)CCCCCCCCCCNC(=O)[C@H](CCCCN)n3cc(C)nn3)CC2)n1` [RI-GK] gave an IC50 of 8.52 µM. `CC1=CC(C)(C)N2C(=O)/C(=N\NC(N)=S)c3cccc1c32` [SMR000218901] displayed an IC50 of over 20 µM. `CC(C)NC(=S)NNC1=c2cc(C(C)C)ccc2=NC1=O` [SMR000242097] returned an IC50 of over 20 µM.
